{"source": "patent US8558011B2", "about": "“Cold menthol receptor-1 antagonists” (Janssen Pharmaceutica, NV, priority 2010, dated 2013)", "key": {"canine TRPM8": {"molecular_target": "T1, canine TRPM8 (Canis lupus familiaris, UniProt Q1A7N1)", "T1 construct": "expressed in transfected cells", "T1 sequence (Q1A7N1 1-1104)": "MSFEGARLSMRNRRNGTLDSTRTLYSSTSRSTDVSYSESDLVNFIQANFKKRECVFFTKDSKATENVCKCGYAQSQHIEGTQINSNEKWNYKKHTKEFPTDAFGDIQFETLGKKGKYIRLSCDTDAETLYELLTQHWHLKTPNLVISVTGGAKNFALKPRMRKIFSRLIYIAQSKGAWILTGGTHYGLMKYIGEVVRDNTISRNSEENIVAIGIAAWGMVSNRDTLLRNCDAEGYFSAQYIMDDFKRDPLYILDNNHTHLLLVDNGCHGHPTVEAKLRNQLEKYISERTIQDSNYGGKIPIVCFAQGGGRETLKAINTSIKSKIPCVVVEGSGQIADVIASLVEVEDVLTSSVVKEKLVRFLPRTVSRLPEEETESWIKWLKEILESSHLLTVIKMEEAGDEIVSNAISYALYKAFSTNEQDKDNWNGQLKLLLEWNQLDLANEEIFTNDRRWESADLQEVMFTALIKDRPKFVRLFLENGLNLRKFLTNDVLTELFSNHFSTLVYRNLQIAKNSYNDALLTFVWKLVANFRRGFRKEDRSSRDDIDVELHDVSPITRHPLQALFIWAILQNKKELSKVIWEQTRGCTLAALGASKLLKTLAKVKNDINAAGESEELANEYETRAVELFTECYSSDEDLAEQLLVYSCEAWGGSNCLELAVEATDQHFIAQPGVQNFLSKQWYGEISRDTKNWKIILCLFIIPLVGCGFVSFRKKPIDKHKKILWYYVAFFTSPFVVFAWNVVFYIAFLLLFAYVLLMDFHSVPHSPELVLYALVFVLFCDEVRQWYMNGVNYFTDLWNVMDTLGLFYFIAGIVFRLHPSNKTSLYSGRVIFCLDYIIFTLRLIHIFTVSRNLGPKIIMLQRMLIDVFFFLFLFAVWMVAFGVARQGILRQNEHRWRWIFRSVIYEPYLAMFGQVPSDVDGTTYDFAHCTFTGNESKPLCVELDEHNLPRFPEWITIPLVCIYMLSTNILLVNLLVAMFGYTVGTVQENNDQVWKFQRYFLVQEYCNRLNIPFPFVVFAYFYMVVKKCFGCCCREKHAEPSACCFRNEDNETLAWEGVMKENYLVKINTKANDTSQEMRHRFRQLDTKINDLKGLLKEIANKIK", "assay": "In Vitro Canine TRPM8 Functional Assay (Ca2+-sensitive fluorescent dye, icilin activation, FLIPR/FDSS)", "format": "cell-based", "conditions": "HEK293 cells stably expressing canine TRPM8, icilin activation; for % I (1 μM): compound at 1 μM; for pIC50: eight-point dose-response; for % I (0.5 μM): compound at 0.5 μM", "in_short": "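HEK293 cells stably expressing canine TRPM8, loaded with Calcium 3 dye, preincubated with compound for 5 min before icilin at a concentration giving ~80% maximal response. Ca2+ fluorescence by FLIPR or FDSS; basal-subtracted, normalized to % maximal response, quadruplicate wells, sigmoidal fit for EC50/IC50.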"}, "[1]": {"tested_on": "CFA-induced Paw Radiant Heat Hypersensitivity", "assay": "CFA-induced paw radiant heat hypersensitivity", "format": "in vivo, rat", "experimental": "Intraplantar injection of Complete Freund's Adjuvant (CFA) in rodents results in a long-lasting inflammatory reaction, characterized by a pronounced hypersensitivity to both thermal and mechanical stimuli. This hypersensitivity peaks between 24-72 hours following injection and can last for several weeks. […] This paradigm also may be conducted with a multiple dosing or a prophylactic dosing regime designed to alter the course of hyperalgesia development. This test predicts the analgesic, anti-allodynic and antihyperalgesic effect of numerous effective clinical agents, including NSAIDS such as acetaminophen, aspirin and ibuprofen, and opioids such as morphine.\nEach rat was placed in a test chamber on a warm glass surface and allowed to acclimate for approximately 10 minutes. A radiant thermal stimulus (beam of light) was then focused through the glass onto the plantar surface of each hind paw in turn. The thermal stimulus was automatically shut off by a photoelectric relay when the paw was moved or when the cut-off time was reached (20 seconds for radiant heat at ˜5 Amps). An initial (baseline) response latency to the thermal stimulus was recorded for each animal prior to the injection of CFA. Twenty-four hours following intraplantar CFA injection, the response latency of the animal to the thermal stimulus was then re-evaluated and compared to the animal's baseline response time. […] Immediately following the post-CFA latency assessment, test compound or vehicle (usually Solutol, hydroxypropyl methylcellulose, hydroxypropyl beta-cyclodextrin or PEG-400) was administered i.p. or p.o. to rats. […] The percent reversal (% R) of hypersenstivitiy was calculated according to the following formula: % Reversal=(Treatment Response−CFA Response)/(Baseline Response−CFA Response)×100."}}, "note": "pIC50: −log10 of the molar value.", "data": [{"compound": "CCOP(=O)(OCC)C(Cc1ccc(F)c(F)c1)c1sc2ccccc2c1Br", "note": "(centres unmarked) [Cpd 127, [1-(3-Bromo-benzo[b]thiophen-2-yl)-2-(3,4-difluoro-phenyl)-ethyl]-phosphonic acid dethyl ester]", "values": [{"measurement": "% I (1 μM)", "setting": "canine TRPM8", "value": 100, "unit": "%"}, {"measurement": "% Reversal", "setting": "[1]; 30 mg/kg p.o., time 1 (h)", "value": 88, "unit": "%"}]}, {"compound": "CCOP(=O)(OCC)C(Cc1ccc(F)c(C(F)(F)F)c1)c1sc2ccccc2c1Cl", "note": "(centres unmarked) [Cpd 298]", "values": [{"measurement": "pIC50", "setting": "canine TRPM8", "value": 7.07}, {"measurement": "% I (0.5 μM)", "setting": "canine TRPM8", "value": 99, "unit": "%"}, {"measurement": "% Reversal", "setting": "[1]; 30 mg/kg p.o., time 1 (h)", "value": 20, "unit": "%"}]}, {"compound": "CCOP(=O)(OCC)C(Cc1cccc(Cl)c1)c1sc2ccccc2c1Br", "note": "(centres unmarked) [Cpd 137, [1-(3-Bromo-benzo[b]thiophene-2-yl)-2-(3-chloro-phenyl)-ethyl]-phosphonic acid diethyl ester]", "values": [{"measurement": "% I (0.5 μM)", "setting": "canine TRPM8", "value": 102, "unit": "%"}, {"measurement": "% Reversal", "setting": "[1]; 30 mg/kg p.o., time 1 (h)", "value": 34, "unit": "%"}]}, {"compound": "CCOP(=O)(OCC)C(Cc1ccc(F)c(Cl)c1)c1sc2ccccc2c1Br", "note": "(centres unmarked) [Cpd 244]", "values": [{"measurement": "pIC50", "setting": "canine TRPM8", "value": 7.55}, {"measurement": "% I (0.5 μM)", "setting": "canine TRPM8", "value": 103, "unit": "%"}, {"measurement": "% Reversal", "setting": "[1]; 30 mg/kg p.o., time 2 (h)", "value": 45, "unit": "%"}]}, {"compound": "CC(C)OP(=O)(OC(C)C)C(Cc1ccc(F)c(F)c1)c1sc2ccccc2c1Cl", "note": "(centres unmarked) [Cpd 12, [1-(3-Chloro-benzo[b]thiophen-2-yl)-2-(3,4-difluoro-phenyl)-ethyl]-phosphonic acid diisopropyl ester]", "values": [{"measurement": "% I (1 μM)", "setting": "canine TRPM8", "value": 100, "unit": "%"}, {"measurement": "% Reversal", "setting": "[1]; 30 mg/kg i.p., time 1 h", "value": 105, "unit": "%"}]}, {"compound": "CCOP(=O)(OCC)C(Cc1ccc(F)cc1)c1sc2ccccc2c1Br", "note": "(centres unmarked) [Cpd 238, [1-(3-Bromo-benzo[b]thiophen-2-yl)-2-(4-fluoro-phenyl)-ethyl]-phosphonic acid diethyl ester]", "values": [{"measurement": "% I (0.5 μM)", "setting": "canine TRPM8", "value": 104, "unit": "%"}, {"measurement": "% Reversal", "setting": "[1]; 30 mg/kg p.o., time 2 (h)", "value": 56, "unit": "%"}]}, {"compound": "CCOP(=O)(OCC)C(Cc1ccc(SC)cc1)c1sc2ccccc2c1Cl", "note": "(centres unmarked) [Cpd 299]", "values": [{"measurement": "pIC50", "setting": "canine TRPM8", "value": 6.85}, {"measurement": "% I (0.5 μM)", "setting": "canine TRPM8", "value": 101, "unit": "%"}, {"measurement": "% Reversal", "setting": "[1]; 30 mg/kg p.o., time 1 (h)", "value": 23, "unit": "%"}]}]}
